Data as given in US4556565A, “Sweetener composition, process for making the same, and comestibles comprising said sweetener composition” (priority 1983, dated 1985).
Where a SMILES comes first, the peptide text is derived from it.

Columns and labels:
bacteria in the mouth = settings: cited from earlier work
[1] = Cold water solubility test (time to dissolve); type: physicochemical; settings: 15 g/100 ml of water, 10° C., magnetic stirrer (3 turns/sec)
From the text: A magnetic stirrer (3 turns/sec) was used to agitate each sample.

[2] = Residual APM in chewing gum on standing at 32° C.; type: physicochemical; settings: calcium carbonate in the chewing gum base
[3] = cited from earlier work

In the case of `OC[C@@H](O)[C@@H](O[C@H]1O[C@H](CO)[C@@H](O)[C@H](O)[C@H]1O)[C@H](O)[C@@H](O)CO` [hydrogenated maltose], the “Dental caries causing effect / bacterial action in the mouth” value (bacteria in the mouth) is listed as “not subjected to the bacterial action in the mouth”.

For `COC(=O)[C@H](Cc1ccccc1)NC(=O)[C@@H](N)CC(=O)O` [APM, L-aspartyl-L-phenylalanine methyl ester] (H-Asp-Phe-OMe), the “Cold water solubility of sweetener compositions” value [1] is given as 900 s, the “Stability of APM in chewing gum containing calcium carbonate” value [2] is given as “rapidly decomposed by calcium carbonate” and the “Dental caries causing effect / bacterial action in the mouth” value (bacteria in the mouth) is given as “low dental caries causing effect”. For the same molecule, the “Dispersibility or solubility in water” value [3] was “low dispersibility or solubility in water”.
